Laboratory results: ChEMBL document CHEMBL5584236, “Development of novel bisphenol derivatives with a membrane-targeting mechanism as potent gram-positive antibacterial agents” (Eur J Med Chem, 2024)

Tests used:
Staphylococcus aureus [1] = test: Antibacterial activity against methicillin-resistant Staphylococcus aureus N315 assessed as reduction in microbial growth incubated for 22 to 24 hrs by CLSI based broth microdilution method; assay type: functional; details: time 22-24 hrs
[2] = Hemolytic activity against rabbit RBC incubated for 1 hr by multimode plate reader; assay type: toxicity, cell-based, Oryctolagus cuniculus, Erythrocyte; details: rabbit red blood cells (erythrocytes)
Staphylococcus aureus [3] = test: Antibacterial activity against Staphylococcus aureus ATCC25923 assessed as reduction in microbial growth incubated for 22 to 24 hrs by CLSI based broth microdilution method; assay type: functional; details: time 22-24 hrs
[4] = tested on: Staphylococcus epidermidis; test: Antibacterial activity against Staphylococcus epidermidis CMCC26069 assessed as reduction in microbial growth incubated for 22 to 24 hrs by CLSI based broth microdilution method; assay type: functional; details: time 22-24 hrs
[5] = tested on: Staphylococcus epidermidis; test: Antibacterial activity against Staphylococcus epidermidis ATCC12228 assessed as reduction in microbial growth incubated for 22 to 24 hrs by CLSI based broth microdilution method; assay type: functional; details: time 22-24 hrs
Staphylococcus aureus [6] = test: Bactericidal activity against methicillin-resistant Staphylococcus aureus NCTC10442 assessed as cell killing at 4 times of MIC measured with in 2 hrs by time kill assay relative to control; assay type: functional
Staphylococcus aureus [7] = test: Bactericidal activity against Staphylococcus aureus ATCC29213 assessed as log reduction in bacterial load at 8 times of MIC measured with in 0.5 hrs by time kill assay; assay type: functional
[8] = Cytotoxicity against mouse NCTC clone 929 cells assessed as viable cells at 100 ug/ml incubated for 24 hrs by CCK-8 assay relative to control; assay type: toxicity, cell-based; details: NCTC clone 929 (L929) cells, at 100 µg/mL, read-out: Activity
Staphylococcus aureus [9] = test: Induction of membrane permeabilization in Staphylococcus aureus ATCC29213 assessed as increase in fluorescence intensity measured upto 60 mins by SYTOX green assay; assay type: functional, organism-based
Staphylococcus aureus [10] = test: Antibacterial activity against Staphylococcus aureus ATCC29213 assessed as reduction in bacterial growth incubated for 22 to 24 hrs in presence of NaCl by CLSI based broth microdilution method; assay type: functional; details: time 22-24 hrs
Staphylococcus aureus [11] = test: Antibacterial activity against Staphylococcus aureus ATCC29213 assessed as reduction in bacterial growth incubated for 22 to 24 hrs in presence of KCl by CLSI based broth microdilution method; assay type: functional; details: time 22-24 hrs
Staphylococcus aureus [12] = test: Antibacterial activity against Staphylococcus aureus ATCC29213 assessed as reduction in bacterial growth incubated for 22 to 24 hrs in presence of CaCl2 by CLSI based broth microdilution method; assay type: functional; details: time 22-24 hrs
Staphylococcus aureus [13] = test: Antibacterial activity against Staphylococcus aureus ATCC29213 assessed as reduction in bacterial growth incubated for 22 to 24 hrs in presence of ZnSO4.7H2O by CLSI based broth microdilution method; assay type: functional; details: time 22-24 hrs
Staphylococcus aureus [14] = test: Antibacterial activity against Staphylococcus aureus ATCC29213 assessed as reduction in bacterial growth incubated for 22 to 24 hrs in presence of FeCl3 by CLSI based broth microdilution method; assay type: functional; details: time 22-24 hrs
Staphylococcus aureus [15] = test: Antibacterial activity against methicillin-resistant Staphylococcus aureus N315 assessed as reduction in bacterial growth incubated for 22 to 24 hrs in presence of NaCl by CLSI based broth microdilution method; assay type: functional; details: time 22-24 hrs
Staphylococcus aureus [16] = test: Antibacterial activity against methicillin-resistant Staphylococcus aureus N315 assessed as reduction in bacterial growth incubated for 22 to 24 hrs in presence of KCl by CLSI based broth microdilution method; assay type: functional; details: time 22-24 hrs
Staphylococcus aureus [17] = test: Antibacterial activity against methicillin-resistant Staphylococcus aureus N315 assessed as reduction in bacterial growth incubated for 22 to 24 hrs in presence of CaCl2 by CLSI based broth microdilution method; assay type: functional; details: time 22-24 hrs
Staphylococcus aureus [18] = test: Antibacterial activity against methicillin-resistant Staphylococcus aureus NCTC10442 assessed as reduction in bacterial growth incubated for 22 to 24 hrs in presence of CaCl2 by CLSI based broth microdilution method; assay type: functional; details: time 22-24 hrs
Staphylococcus aureus [19] = test: Antibacterial activity against methicillin-resistant Staphylococcus aureus NCTC10442 assessed as reduction in bacterial growth incubated for 22 to 24 hrs in presence of FeCl3 by CLSI based broth microdilution method; assay type: functional; details: time 22-24 hrs
Staphylococcus aureus [20] = test: Synergistic […] activity against Staphylococcus aureus ATCC29213 assessed as fractional inhibitory concentration index incubated for 22 to 24 hrs in presence of fusidic acid by CLSI based broth microdilution method; assay type: functional; details: time 22-24 hrs
Staphylococcus aureus [21] = test: Synergistic […] activity against methicillin-resistant Staphylococcus aureus NCTC10442 assessed as fractional inhibitory concentration index incubated for 22 to 24 hrs in presence of linezolid by CLSI based broth microdilution method; assay type: functional; details: time 22-24 hrs
Staphylococcus aureus [22] = test: Synergistic […] activity against Staphylococcus aureus ATCC29213 assessed as fractional inhibitory concentration index incubated for 22 to 24 hrs in presence of mupirocin by CLSI based broth microdilution method; assay type: functional; details: time 22-24 hrs
Klebsiella pneumoniae [23] = test: Synergistic […] activity against Klebsiella pneumoniae ATCC10031 assessed as fractional inhibitory concentration index incubated for 22 to 24 hrs in presence of meropenem by CLSI based broth microdilution method; assay type: functional; details: time 22-24 hrs
Klebsiella pneumoniae [24] = test: Synergistic […] activity against Klebsiella pneumoniae ATCC10031 assessed as fractional inhibitory concentration index incubated for 22 to 24 hrs in presence of amikacin by CLSI based broth microdilution method; assay type: functional; details: time 22-24 hrs
Acinetobacter baumannii [25] = test: Synergistic […] activity against Acinetobacter baumannii ATCC17978 assessed as fractional inhibitory concentration index incubated for 22 to 24 hrs in presence of tobramycin by CLSI based broth microdilution method; assay type: functional; details: time 22-24 hrs
Acinetobacter baumannii [26] = test: Synergistic […] activity against Acinetobacter baumannii ATCC17978 assessed as fractional inhibitory concentration index incubated for 22 to 24 hrs in presence of gentamicin by CLSI based broth microdilution method; assay type: functional; details: time 22-24 hrs
Acinetobacter baumannii [27] = test: Synergistic […] activity against Acinetobacter baumannii ATCC17978 assessed as fractional inhibitory concentration index incubated for 22 to 24 hrs in presence of meropenem by CLSI based broth microdilution method; assay type: functional; details: time 22-24 hrs
[28] = Cytotoxicity against mouse NCTC clone 929 cells assessed as viable cells at 12.5 ug/ml incubated for 24 hrs by CCK-8 assay relative to control; assay type: toxicity, cell-based; details: NCTC clone 929 (L929) cells, at 12.5 µg/mL, read-out: Activity
[29] = Cytotoxicity against mouse NCTC clone 929 cells assessed as viable cells at 50 ug/ml incubated for 24 hrs by CCK-8 assay relative to control; assay type: toxicity, cell-based; details: NCTC clone 929 (L929) cells, at 50 µg/mL, read-out: Activity
[30] = Cytotoxicity against HEK293 cells assessed as viable cells at 6.25 ug/ml incubated for 24 hrs by CCK-8 assay relative to control; assay type: toxicity, cell-based; details: human, at 6.25 µg/mL, read-out: Activity
[31] = Cytotoxicity against HEK293 cells assessed as viable cells at 12.5 ug/ml incubated for 24 hrs by CCK-8 assay relative to control; assay type: toxicity, cell-based; details: human, at 12.5 µg/mL, read-out: Activity
[32] = Cytotoxicity against HEK293 cells assessed as viable cells at 25 ug/ml incubated for 24 hrs by CCK-8 assay relative to control; assay type: toxicity, cell-based; details: human, at 25 µg/mL, read-out: Activity
[33] = Cytotoxicity against HEK293 cells assessed as viable cells at 50 ug/ml incubated for 24 hrs by CCK-8 assay relative to control; assay type: toxicity, cell-based; details: human, at 50 µg/mL, read-out: Activity

COC(=O)[C@H](CCCNC(=N)N)NC(=O)[C@H](CCCNC(=N)N)NC(=O)COc1ccc(S(=O)(=O)c2ccc(OC/C=C(/C)CCC=C(C)C)cc2)cc1
MIC (Staphylococcus aureus [1]): 0.78 µg/mL | HC50 at 1 h [2]: > 200 µg/mL | MIC (Staphylococcus aureus [3]): 3.12 µg/mL | MIC [4]: 1.56 µg/mL | MIC [5]: 1.56 µg/mL | Activity (Staphylococcus aureus [6]): 99.99% | log(activity) (Staphylococcus aureus [7]): 3 | viability at 24 h, 100 ug/ml [8]: 74% | Activity (Staphylococcus aureus [9]): Dose-Dependent Effect | MIC (Staphylococcus aureus [10]): 1.56 µg/mL | MIC (Staphylococcus aureus [11]): 1.56 µg/mL | MIC (Staphylococcus aureus [12]): 3.12 µg/mL | MIC (Staphylococcus aureus [13]): 1.56 µg/mL | MIC (Staphylococcus aureus [14]): 1.56 µg/mL | MIC (Staphylococcus aureus [15]): 1.56 µg/mL | MIC (Staphylococcus aureus [16]): 1.56 µg/mL | MIC (Staphylococcus aureus [17]): 3.12 µg/mL | MIC (Staphylococcus aureus [18]): 3.12 µg/mL | MIC (Staphylococcus aureus [19]): 1.56 µg/mL | fractional inhibitory concentration index (FICI) (Staphylococcus aureus [20]): 0.28 | fractional inhibitory concentration index (FICI) (Staphylococcus aureus [21]): 0.27 | fractional inhibitory concentration index (FICI) (Staphylococcus aureus [22]): 0.625 | fractional inhibitory concentration index (FICI) (Klebsiella pneumoniae [23]): 0.56 | fractional inhibitory concentration index (FICI) (Klebsiella pneumoniae [24]): 0.31 | fractional inhibitory concentration index (FICI) (Acinetobacter baumannii [25]): 0.56 | fractional inhibitory concentration index (FICI) (Acinetobacter baumannii [26]): 0.28 | fractional inhibitory concentration index (FICI) (Acinetobacter baumannii [27]): 0.25 | viability at 24 h, 12.5 ug/ml [28]: 88.9% | viability at 24 h, 50 ug/ml [29]: 84.7% | viability at 24 h, 6.25 ug/ml [30]: 96.1% | viability at 24 h, 12.5 ug/ml [31]: 94.2% | viability at 24 h, 25 ug/ml [32]: 93.8% | viability at 24 h, 50 ug/ml [33]: 91.5%
